Test results: paper PMC4774911, “Biochemical Screening of Five Protein Kinases from Plasmodium falciparum against 14,000 Cell-Active Compounds” (PLoS ONE, 2016)

Legend:
Assay in all cases: biochemical
[1] = target: T1, Plasmodium falciparum protein kinase 6 (PK6) (Plasmodium falciparum, UniProt Q8IDW1); settings: hits below 1 uM; read-out: PK6 IC50
T1 construct: 6-Histidine (N); made in house
T1 sequence (Q8IDW1 1-305): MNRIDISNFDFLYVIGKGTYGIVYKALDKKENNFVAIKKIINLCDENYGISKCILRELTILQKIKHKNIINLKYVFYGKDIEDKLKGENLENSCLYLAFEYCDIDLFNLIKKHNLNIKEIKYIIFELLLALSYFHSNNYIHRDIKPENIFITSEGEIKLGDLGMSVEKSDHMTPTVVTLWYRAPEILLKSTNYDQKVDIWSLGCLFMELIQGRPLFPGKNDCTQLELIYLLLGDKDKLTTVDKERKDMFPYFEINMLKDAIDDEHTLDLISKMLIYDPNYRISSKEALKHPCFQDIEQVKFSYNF

CDK10 = CDK10 (Homo sapiens, UniProt Q15131)
Chain of CDK10 (Q15131 whole entry): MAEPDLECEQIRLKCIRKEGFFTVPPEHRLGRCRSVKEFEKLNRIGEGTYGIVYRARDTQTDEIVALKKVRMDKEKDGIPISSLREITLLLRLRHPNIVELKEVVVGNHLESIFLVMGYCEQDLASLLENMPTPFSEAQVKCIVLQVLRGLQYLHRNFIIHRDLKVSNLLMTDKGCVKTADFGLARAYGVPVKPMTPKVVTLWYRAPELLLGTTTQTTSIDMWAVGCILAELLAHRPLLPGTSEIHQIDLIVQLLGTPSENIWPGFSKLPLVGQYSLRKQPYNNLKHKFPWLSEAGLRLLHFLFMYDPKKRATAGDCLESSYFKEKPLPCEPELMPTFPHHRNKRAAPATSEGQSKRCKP

PRKDC = PRKDC (Homo sapiens, UniProt P78527)
STK3 = STK3 (Homo sapiens, UniProt Q13188)
Chain of STK3 (Q13188 whole entry): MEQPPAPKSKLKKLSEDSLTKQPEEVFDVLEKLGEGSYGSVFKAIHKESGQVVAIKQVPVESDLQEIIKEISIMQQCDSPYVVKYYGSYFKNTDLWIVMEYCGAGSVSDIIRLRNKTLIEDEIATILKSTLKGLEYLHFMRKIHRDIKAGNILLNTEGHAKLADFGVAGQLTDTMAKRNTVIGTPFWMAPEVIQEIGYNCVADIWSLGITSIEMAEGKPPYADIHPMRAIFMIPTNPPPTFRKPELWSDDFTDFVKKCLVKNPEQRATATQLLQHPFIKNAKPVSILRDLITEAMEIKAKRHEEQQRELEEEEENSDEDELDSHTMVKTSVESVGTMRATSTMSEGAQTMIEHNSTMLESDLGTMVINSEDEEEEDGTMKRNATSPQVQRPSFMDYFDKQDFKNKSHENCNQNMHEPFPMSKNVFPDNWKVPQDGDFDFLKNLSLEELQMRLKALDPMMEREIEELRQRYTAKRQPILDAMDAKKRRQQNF

NEK3 = target: T2, NEK3 (Homo sapiens, UniProt P51956)
T2 sequence (P51956 1-506): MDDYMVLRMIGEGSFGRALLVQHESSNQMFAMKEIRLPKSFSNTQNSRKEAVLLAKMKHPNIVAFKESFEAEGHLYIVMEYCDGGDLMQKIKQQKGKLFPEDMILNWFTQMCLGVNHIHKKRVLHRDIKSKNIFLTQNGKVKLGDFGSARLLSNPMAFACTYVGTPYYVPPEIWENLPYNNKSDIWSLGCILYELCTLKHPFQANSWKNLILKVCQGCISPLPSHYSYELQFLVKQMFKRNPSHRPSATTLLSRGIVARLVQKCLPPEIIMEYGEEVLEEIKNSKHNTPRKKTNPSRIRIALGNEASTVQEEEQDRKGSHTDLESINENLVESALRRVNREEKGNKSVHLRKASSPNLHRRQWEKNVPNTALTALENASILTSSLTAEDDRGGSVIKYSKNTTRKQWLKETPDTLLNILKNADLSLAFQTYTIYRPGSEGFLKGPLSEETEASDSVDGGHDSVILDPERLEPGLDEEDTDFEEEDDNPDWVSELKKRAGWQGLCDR

NEK6 = NEK6 (Homo sapiens, UniProt Q9HC98)
Chain of NEK6 (Q9HC98 whole entry): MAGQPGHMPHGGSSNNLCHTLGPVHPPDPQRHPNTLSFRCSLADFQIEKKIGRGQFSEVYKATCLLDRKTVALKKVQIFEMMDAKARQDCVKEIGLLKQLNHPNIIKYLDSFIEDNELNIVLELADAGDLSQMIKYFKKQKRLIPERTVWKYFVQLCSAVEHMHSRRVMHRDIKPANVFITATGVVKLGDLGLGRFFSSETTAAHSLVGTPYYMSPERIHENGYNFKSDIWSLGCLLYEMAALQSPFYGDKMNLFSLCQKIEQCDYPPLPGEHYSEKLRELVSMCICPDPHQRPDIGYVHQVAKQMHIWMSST

TNK2 = TNK2 (Homo sapiens, UniProt Q07912)
Chain of TNK2 (Q07912 whole entry): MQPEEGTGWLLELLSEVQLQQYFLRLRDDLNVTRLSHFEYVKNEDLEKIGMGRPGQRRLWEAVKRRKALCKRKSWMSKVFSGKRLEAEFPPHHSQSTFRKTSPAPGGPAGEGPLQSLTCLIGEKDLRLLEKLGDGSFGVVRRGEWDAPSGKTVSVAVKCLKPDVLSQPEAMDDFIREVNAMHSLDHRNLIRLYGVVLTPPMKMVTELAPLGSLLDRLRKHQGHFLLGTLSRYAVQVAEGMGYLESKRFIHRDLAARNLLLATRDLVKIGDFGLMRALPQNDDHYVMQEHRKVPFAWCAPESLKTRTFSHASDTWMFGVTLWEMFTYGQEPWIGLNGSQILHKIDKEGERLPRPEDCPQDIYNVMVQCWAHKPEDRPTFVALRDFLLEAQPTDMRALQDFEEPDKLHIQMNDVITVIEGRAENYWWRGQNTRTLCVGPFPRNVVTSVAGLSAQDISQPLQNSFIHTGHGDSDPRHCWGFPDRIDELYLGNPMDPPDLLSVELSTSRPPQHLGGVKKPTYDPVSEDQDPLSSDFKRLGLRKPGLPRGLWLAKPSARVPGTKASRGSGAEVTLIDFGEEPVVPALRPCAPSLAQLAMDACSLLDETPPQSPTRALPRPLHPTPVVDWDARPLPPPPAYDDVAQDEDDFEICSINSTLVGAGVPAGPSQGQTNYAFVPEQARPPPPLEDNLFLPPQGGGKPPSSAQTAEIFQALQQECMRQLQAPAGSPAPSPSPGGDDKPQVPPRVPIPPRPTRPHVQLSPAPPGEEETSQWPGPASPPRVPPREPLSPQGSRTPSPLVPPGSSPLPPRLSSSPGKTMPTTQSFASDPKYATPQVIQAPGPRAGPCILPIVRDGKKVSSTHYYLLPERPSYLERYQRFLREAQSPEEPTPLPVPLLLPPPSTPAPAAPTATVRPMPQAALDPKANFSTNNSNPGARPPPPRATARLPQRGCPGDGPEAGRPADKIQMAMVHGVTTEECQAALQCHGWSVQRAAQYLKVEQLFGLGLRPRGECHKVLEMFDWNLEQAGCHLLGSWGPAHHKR

ULK1 = target: T3, ULK1 (Homo sapiens, UniProt O75385)
T3 sequence (O75385 1-1050): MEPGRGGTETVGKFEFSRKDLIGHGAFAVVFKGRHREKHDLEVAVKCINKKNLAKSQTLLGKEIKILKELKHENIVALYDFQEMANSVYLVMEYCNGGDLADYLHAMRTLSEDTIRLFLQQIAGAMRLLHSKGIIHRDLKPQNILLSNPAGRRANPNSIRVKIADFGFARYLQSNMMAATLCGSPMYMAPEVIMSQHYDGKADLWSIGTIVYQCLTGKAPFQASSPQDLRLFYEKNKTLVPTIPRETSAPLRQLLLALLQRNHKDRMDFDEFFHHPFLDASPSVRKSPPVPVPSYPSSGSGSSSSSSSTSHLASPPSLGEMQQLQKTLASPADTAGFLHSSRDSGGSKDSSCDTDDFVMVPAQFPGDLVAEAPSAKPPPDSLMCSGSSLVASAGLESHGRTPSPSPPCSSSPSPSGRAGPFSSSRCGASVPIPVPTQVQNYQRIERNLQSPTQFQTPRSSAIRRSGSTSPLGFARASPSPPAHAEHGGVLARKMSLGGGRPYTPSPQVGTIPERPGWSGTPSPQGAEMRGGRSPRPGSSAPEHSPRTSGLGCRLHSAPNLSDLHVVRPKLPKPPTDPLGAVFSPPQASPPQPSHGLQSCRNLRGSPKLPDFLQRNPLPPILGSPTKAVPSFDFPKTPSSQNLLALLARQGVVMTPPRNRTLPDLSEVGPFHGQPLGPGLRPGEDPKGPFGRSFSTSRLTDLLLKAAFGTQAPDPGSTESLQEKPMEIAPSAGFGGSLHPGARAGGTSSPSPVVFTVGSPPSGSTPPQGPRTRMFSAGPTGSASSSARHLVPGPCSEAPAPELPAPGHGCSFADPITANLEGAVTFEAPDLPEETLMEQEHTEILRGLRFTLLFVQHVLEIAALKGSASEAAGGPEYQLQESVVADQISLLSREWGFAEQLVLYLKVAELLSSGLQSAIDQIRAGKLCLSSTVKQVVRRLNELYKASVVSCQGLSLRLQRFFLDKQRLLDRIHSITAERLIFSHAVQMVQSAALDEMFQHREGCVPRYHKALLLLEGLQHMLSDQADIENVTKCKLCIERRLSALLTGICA

## CN(C)CC(O)COc1ccc(Nc2ncc([N+](=O)[O-])c(Nc3ccccc3O)n2)cc1.O=C(O)C(F)(F)F (stereo not shown) [TCMDC-141399]
[1]
  IC50: 0.067 µM
CDK10
  IC50: 1.6 µM
PRKDC
  IC50: > 20 µM
STK3
  IC50: > 20 µM

## Cl.NCC1(c2nc(-c3ccc(Cl)c(O)c3)c(-c3ccncc3)[nH]2)CCCCC1 [TCMDC-141154]
CDK10
  IC50: > 20 µM
NEK3
  IC50: > 20 µM
NEK6
  IC50: > 20 µM
PRKDC
  IC50: > 20 µM
STK3
  IC50: > 20 µM
TNK2
  IC50: > 20 µM
ULK1
  IC50: > 20 µM

## CN1CCN(c2ccc(Nc3ncc(C#N)c(Nc4ccccc4C(N)=O)n3)cc2)CC1.Cl [TCMDC-134116]
[1]
  IC50: 0.089 µM
NEK3
  IC50: 1.1 µM
NEK6
  IC50: 0.26 µM
TNK2
  IC50: 0.16 µM
ULK1
  IC50: 0.16 µM
